Measured values as given in patent publication US20240110004A1 (Northwestern University, priority 2022, published 2024).
Where no end group is shown, it is not given here.

Columns and labels:
R6/2 mice [1] = assay: Western blot of DARPP-32, PSD95 and BDNF in striatal lysates; assay type: in vivo, mouse
Excerpt: FIG. 32A-32C: Histograms of Quantified Western Blot Results for Protein Levels (blots not shown). Actin was used as the loading control in the Western Blot, results are therefore depicted as ratios of the protein of interest signal relative to the actin signal in each sample. FIG. 32A depicts DARPP-32 levels in striatal lysates. p-value for: WT veh as compared to R62 veh: <0.0001; WT+P1 as compared to R62 veh: <0.0001; R62 veh as compared to R62+HV3-TAT: 0.0493; R62 veh as compared to R62+P1: 0.0027; R62+P1 as compared to R62+HV3-TAT: 0.7733. FIG. 32B depicts PSD95 levels in striatal lysates. p-value for: WT veh as compared to R62 veh: 0.0034; WT+P1 as compared to R62 veh: <0.0001; R62 veh as compared to R62+HV3-TAT: 0.0191; R62 veh as compared to R62+P1: <0.0001; R62+P1 as compared to R62+HV3-TAT: 0.1442. FIG. 32C depicts BDNF levels in striatal lysates. p-value for: WT veh as compared to R62 veh: <0.0001; WT+P1 as compared to R62 veh: <0.0001; R62 veh as compared to R62+HV3-TAT: 0.0120; R62 veh as compared to R62+P1: <0.0001; R62+P1 as compared to R62+HV3-TAT: 0.0257.
In vivo Efficacy Methods—Levels of Proteins of Interest: To further assess the efficacy of P1 in modulating HD neuropathology, the levels of cAMP-regulated phosphoprotein 32 kDa (DARPP-32), post-synaptic density protein (PSD95), and brain derived neurotrophic factor (BDNF) were determined in medium spiny neurons, each of which are decreased in the striatum of HD patients and R6/2 mouse models. Striatal lysates were generated from frozen striatal tissue from un-perfused sacrificed mice. Using a plate reader, protein concentrations were determined by protein assay dye (Bio-Rad). Protein stocks in lysis buffer were mixed with Laemmli buffer, loaded on SDS-PAGE, and transferred onto nitrocellulose membranes (Invitrogen). Membranes were probed with the primary antibodies for actin, DARPP-32, PSD95, and BDNF, and respective IgG-HRP secondary antibodies, followed by visualization of HRP with a blot scanner.

R6/2 mice [2] = assay: Immunohistochemistry of DARPP-32 in striatum; assay type: in vivo, mouse; conditions: over saline control
Excerpt: FIG. 33: Quantification of immunohistochemistry of DARPP32 in striatum of WT and R6/2 mice after treatment with PLP or HV3-TAT (immunohistochemistry stain not shown). p-value for: WT veh as compared to R62 veh: 0.0010; WT+P1 as compared to R62 veh: 0.0019; R62 veh as compared to R62+HV3-TAT: 0.0496; R62 veh as compared to R62+P1: 0.0104; R62+HV3-TAT as compared to R62+P1: 0.9593.
In vivo Efficacy Methods—Immunohistochemistry: Mice were anaesthetized with isoflurane and transcardially perfused with PBS. After post-fixed with 4% paraformaldehyde, brains were sliced and frozen. Brain sections (20 μm, coronal) were used for immunohistochemical localization of DARPP-32 (1:14000, Abcam) using the IHC Select HRP/DAB kit (Millipore). Imaging of slices was conducted on an all-in-one fluorescence microscope (Keyence). The same image exposure times and threshold settings were used for sections from all treatment groups. Quantitation of DARPP-32 immunostaining was conducted using NIH image J software.

[3] = human, microsomes

## P1: PLP homopolymer having peptide side chains of SEQ ID: 1 (HVLVMSATRR), made by ROMP of norbornene peptide monomer M1 (also: side chains of polynorbornene homopolymer (PLP, ROMP of norbornene peptide monomer))
R6/2 mice [1]; compared to the saline control
  BDNF protein levels in striatal lysates: Significant increases
  PSD95 protein levels in striatal lysates: Significant increases
R6/2 mice [1]; over saline control
  DARPP-32 levels in striatal lysates (immunoblotting): significantly increased DARPP-32 levels
R6/2 mice [2]
  DARPP-32 levels in striatum (immunohistochemistry): significantly increased DARPP-32 levels
enzymes
  molecular weight on SDS-PAGE after enzyme treatment: maintained molecular weight
[3]
  liver microsomal stability: superior stability
C3a
  C3a complement activation compared to the vehicle: did not show a statistically significant difference
Red blood cells
  hemolytic activity: non-significant
